Entries after “also recorded” stand apart in the source; their conditions may differ. Marks after values point to notes of the source that are not given here. Square brackets hold non-standard residues; d marks the D form. Peptide text beside a SMILES is read from it. * marks the point of attachment. Dolaproine = CO[C@@H]([C@@H]1CCCN1)[C@@H](C)C(=O)O; Dil = CC[C@H](C)[C@H](NC)[C@@H](CC(=O)O)OC; X1 = C[C@@H](N*)[C@@H](O)c1ccccc1; NMeV = CN[C@H](C(=O)O)C(C)C
Tests used:
CYP3A [1] = assay: Effect of brentuximab vedotin on midazolam PK
[2] = Excretion of MMAE in urine and feces; type: in vivo, human
[3] = on a mass basis; cited from earlier work
CYP3A [4] = assay: Effect of ketoconazole on brentuximab vedotin; type: in vivo, human; conditions: for MMAE Tmax: median (range); for MMAE Tmax / MMAE Cmax: n=16
CYP3A [5] = conditions: not of this paper; cited from earlier work
CYP3A [6] = assay: Effect of rifampin on brentuximab vedotin; type: in vivo, human; conditions: for MMAE Tmax: median (range)

Cc1ncc2n1-c1ccc(Cl)cc1C(c1ccccc1F)=NC2 [Midazolam, midazolam]
Tmax (CYP3A [1]; human, plasma, intravenous): 2.52 min
half-life (CYP3A [1]; human, plasma, intravenous): 5.69 h
Tmax (CYP3A [1]; human, plasma, intravenous, 1 mg): 3 min
AUC(0-inf) (CYP3A [1]; human, plasma, iv, 1 mg): 79 ng·h/mL
Cmax (CYP3A [1]; human, plasma, iv, 1 mg): 73 ng/mL
half-life (CYP3A [1]; human, plasma, iv, 1 mg): 6.4 h

CC[C@H](C)[C@@H]([C@@H](CC(=O)N1CCC[C@H]1[C@H](OC)[C@@H](C)C(=O)N[C@H](C)[C@@H](O)c1ccccc1)OC)N(C)C(=O)[C@@H](NC(=O)[C@@H](NC)C(C)C)C(C)C [MMAE, monomethyl auristatin E] (H-[NMeV]V[Dil][Dolaproine]-X1)
number of MMAE metabolites detected in urine and feces ([2]; after concentrating the liquid-liquid extracts ten-fold, LC-MS/MS): 8
concentration of MMAE in excreta relative to its metabolites ([2]; estimate, metabolites only detected upon 10-fold concentration): at least 10 fold
MMAE recovered in urine and feces ([2]; of MMAE received during a brentuximab vedotin 1.8 mg/kg infusion, over a 1-week period, n=8): ~ 23.5%
percentage of recovered MMAE excreted in feces, median ([2]; over 1 week after brentuximab vedotin 1.8 mg/kg, remainder in urine): 72%
inhibition or induction of CYP3A in humans (conclusion) (CYP3A [1]; brentuximab vedotin 1.8 mg/kg, midazolam as probe substrate): neither inhibitors nor inducers of CYP3A; also recorded: neither an inhibitor nor inducer of CYP3A
MMAE exposures lower than those of the ADC [3]: ~ 2000 fold
MMAE AUC0-∞ (CYP3A [4]; brentuximab vedotin 1.2 mg/kg IV alone, plasma, geometric mean (%CV), n=14): 26.65 (71) d·ng/mL
MMAE t1/2 (CYP3A [4]; brentuximab vedotin 1.2 mg/kg alone, geometric mean (%CV), n=14): 3.06 (13) d
MMAE Tmax (CYP3A [4]; brentuximab vedotin 1.2 mg/kg alone): 1.97 (0.97, 6.99) ^a d
MMAE Cmax (CYP3A [4]; brentuximab vedotin 1.2 mg/kg alone, plasma, geometric mean (%CV)): 4.11 (71) ng/mL
MMAE exposures higher when ketoconazole was coadministered (CYP3A [4]; brentuximab vedotin 1.2 mg/kg with ketoconazole vs alone): ~ 34%
MMAE t1/2 (CYP3A [4]; brentuximab vedotin 1.2 mg/kg with ketoconazole, geometric mean (%CV), n=14): 3.47 (66) d
MMAE Tmax (CYP3A [4]; brentuximab vedotin 1.2 mg/kg with ketoconazole): 2.45 (0.22, 4.06) ^a d
MMAE Cmax (CYP3A [4]; brentuximab vedotin 1.2 mg/kg with ketoconazole, plasma, geometric mean (%CV)): 5.13 (114) ng/mL
potential increase of MMAE AUC0-∞ by coadministration of ketoconazole (CYP3A [4]; in Cycle 1, exploratory analysis of the period effect): ~ 73%
expected increase in MMAE levels with ketoconazole (CYP3A [4]; later cycles, relative to Cycle 1 MMAE levels without ketoconazole): ≤ 38%
CYP3A induction (in vitro studies) (CYP3A [5]): does not induce CYP3A
MMAE AUC0-∞ (CYP3A [6]; brentuximab vedotin 1.8 mg/kg IV alone, plasma, geometric mean (%CV), n=14): 40.06 (53) d·ng/mL
MMAE t1/2 (CYP3A [6]; brentuximab vedotin 1.8 mg/kg alone, geometric mean (%CV), n=14): 3.71 (19) d
MMAE Tmax (CYP3A [6]; brentuximab vedotin 1.8 mg/kg alone, n=14): 3.00 (0.99, 5.01) ^a d
MMAE Cmax (CYP3A [6]; brentuximab vedotin 1.8 mg/kg alone, plasma, geometric mean (%CV), n=14): 4.98 (67) ng/mL
MMAE exposures lower when rifampin was coadministered (CYP3A [6]; brentuximab vedotin 1.8 mg/kg with rifampin vs alone): ~ 46%
MMAE t1/2 (CYP3A [6]; brentuximab vedotin 1.8 mg/kg with rifampin, geometric mean (%CV), n=14): 3.66 (17) d
MMAE Tmax (CYP3A [6]; brentuximab vedotin 1.8 mg/kg with rifampin, n=14): 1.49 (0.33, 4.02) ^a d
MMAE Cmax (CYP3A [6]; brentuximab vedotin 1.8 mg/kg with rifampin, plasma, geometric mean (%CV), n=14): 2.80 (36) ng/mL

— publication PMC3777854 (Journal of clinical pharmacology, 2013)
